Test results published in patent US12338203B2 (TAISHO PHARMACEUTICAL CO., LTD., priority 2019, dated 2025).

Molecular target: T1, human LPAR1 (Homo sapiens, UniProt Q92633)
T1 construct: expressed in transfected cells
Experiment: Test Example 1: antagonism against response of LPA-induced increase in intracellular Ca2+ concentration in RH7777 cells stably expressing human LPAR1
Format: cell-based
Conditions: RH7777 cells stably expressing human LPAR1; Fluo-4 fluorescence, FDSS6000; read-out: IC50 value (concentration producing 50% antagonism against response of LPA-induced increase in intracellular Ca2+ concentration) (converted)
Summary of the method: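 Ca2+ flux read at 540 nm emission (480 nm excitation) after LPA addition to human LPAR1-expressing RH7777 cells exposed to compound for 30 min, 37 °C, pH 7.4 HEPES-buffered HBSS. Response relative to no-compound control after basal subtraction; IC50 fitted from concentration–response.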

T1 sequence (Q92633 whole entry): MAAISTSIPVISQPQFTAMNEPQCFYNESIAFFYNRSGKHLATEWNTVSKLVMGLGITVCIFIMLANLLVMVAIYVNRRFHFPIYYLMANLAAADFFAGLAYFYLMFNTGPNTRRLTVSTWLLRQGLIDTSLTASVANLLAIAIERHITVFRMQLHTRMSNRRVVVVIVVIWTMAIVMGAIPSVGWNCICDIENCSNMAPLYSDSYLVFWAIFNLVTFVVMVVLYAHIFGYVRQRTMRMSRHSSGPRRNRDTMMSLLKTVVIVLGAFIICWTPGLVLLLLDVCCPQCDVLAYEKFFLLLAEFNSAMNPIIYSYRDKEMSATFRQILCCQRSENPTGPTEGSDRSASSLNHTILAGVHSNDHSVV

| Structure (SMILES) | IC50 [nM] |
| --- | --- |
| CCOc1cc([C@@H](C)N(CCC(F)(F)Cc2ccccc2)C(=O)NC2(C(=O)O)CCOCC2)c(Cl)c(OCC)c1C(C)=O [Example 5-43] | 22.1 |
| CCOc1cc(C(C)N(CCCCc2ccccc2)C(=O)NC2(C(=O)O)CC2)c(Cl)c(OCC)c1C(C)=O (stereo not drawn) [Example 5-44] | 3.38 |
| CCOc1cc(C(C)N(CCCCc2ccccc2)C(=O)NC2CC(C(=O)O)C2)c(Cl)c(OCC)c1C(C)=O (stereo not drawn) [Example 5-45] | 32.9 |
| CCOc1cc([C@@H](C)N(CCCCc2ccccc2)C(=O)NC2(C(=O)O)CC(F)(F)C2)c(Cl)c(OCC)c1C(C)=O [Example 5-46] | 1.36 |
| CCOc1cc([C@@H](C)N(CCCCc2ccccc2)C(=O)NC2(C(=O)O)CC(OC)C2)c(Cl)c(OCC)c1C(C)=O (stereo partly drawn) [Example 5-47] | 2.1 |
| CCOc1cc([C@@H](C)N(CCCCc2ccccc2)C(=O)NC2(C(=O)O)CC(OC)C2)c(Cl)c(OCC)c1C(C)=O (stereo partly drawn) [Example 5-48] | 3.77 |
| CCOc1cc([C@@H](C)N(CCCCc2ccccc2)C(=O)N[C@]2(C(=O)O)C[C@H](OC)C2)c(Cl)c(OCC)c1C(C)=O [Example 5-49] | 3.88 |
| CCOc1cc(C(C)N(CCCCc2ccccc2)C(=O)NC2(C(=O)O)CC(OCC)C2)c(Cl)c(OCC)c1C(C)=O (stereo not drawn) [Example 5-50] | 3.1 |
| CCOc1cc([C@@H](C)N(CCCCc2ccccc2)C(=O)NC2(C(=O)O)CCOCC2)c(Cl)c(OCC)c1C(C)=O [Example 5-51] | 2.56 |
| CCOc1cc([C@@H](C)N(CCO[C@@H](C)c2ccccc2)C(=O)N[C@]2(C(=O)O)C[C@H](OCC)C2)c(Cl)c(OCC)c1C(C)O (stereo partly drawn) [Example 5-63] | 8.05 |
| CCOc1cc([C@@H](C)N(CCC(F)(F)Cc2ccccc2)C(=O)NC2(C(=O)O)CCOCC2)c(Cl)c(OCC)c1C(C)O (stereo partly drawn) [Example 5-67, 4-{[{(1R)-1-[2-Chloro-3,5-Diethoxy-4-(1-Hydroxyethyl)Phenyl]Ethyl}(3,3-Difluoro-4-Phenylbutyl) Carbamoyl]Amino}Oxane-4-Carboxylic Acid] | 43.4 |
| CCOc1cc([C@@H](C)N(CCC(F)(F)Cc2ccccc2)C(=O)NC2(C(=O)O)CCOCC2)c(Cl)c(OCC)c1C(C)O (stereo partly drawn) [Example 5-68, 4-{[{(1R)-1-[2-Chloro-3,5-Diethoxy-4-(1-Hydroxyethyl)Phenyl]Ethyl}(3,3-Difluoro-4-Phenylbutyl) Carbamoyl]Amino}Oxane-4-Carboxylic Acid] | 31 |
| CCOc1cc([C@@H](C)N(CCO[C@@H](C)c2ccccc2)C(=O)NC2(C(=O)O)CC(OC)C2)c(C)c(OCC)c1C(C)=O (stereo partly drawn) [Example 5-71] | 2.51 |
| CCOc1cc([C@@H](C)N(CCO[C@@H](C)c2ccccc2)C(=O)N[C@]2(C(=O)O)C[C@H](OC)C2)c(C)c(OCC)c1C(C)=O [Example 5-72] | 3.62 |
| CCOc1cc([C@@H](C)N(CCOCc2ccccc2)C(=O)NC2(C(=O)O)CC(OC)C2)c(C)c(OCC)c1C(C)=O (stereo partly drawn) [Example 5-73] | 1.42 |
| CCOc1cc([C@@H](C)N(CCOCc2ccccc2)C(=O)N[C@]2(C(=O)O)C[C@H](OC)C2)c(C)c(OCC)c1C(C)=O [Example 5-74] | 1.93 |
| CCOc1cc([C@@H](C)N(CCO[C@@H](C)c2ccccc2)C(=O)NC2(C(=O)O)CC2)c(C)c(OCC)c1C [Example 5-75] | 4.74 |
| CCOc1cc([C@@H](C)N(CCC(F)(F)Cc2ccccc2)C(=O)NC2(C(=O)O)CC(OC)C2)c(C)c(OCC)c1C (stereo partly drawn) [Example 5-77] | 14 |
| CCOc1cc([C@@H](C)N(CCOCc2ccccc2)C(=O)NC2(C(=O)O)CC(OC)C2)c(C)c(OCC)c1C (stereo partly drawn) [Example 5-78] | 1.05 |
| CCOc1cc([C@@H](C)N(CCO[C@@H](C)c2ccccc2)C(=O)N[C@]2(C(=O)O)C[C@@H](OC)C2)c(C)c(OCC)c1C [Example 5-79] | 1.21 |
| CCOc1cc([C@@H](C)N(CCC(F)(F)Cc2ccccc2)C(=O)N[C@]2(C(=O)O)C[C@@H](OCC)C2)c(C)c(OCC)c1C [Example 5-80] | 43.5 |
| CCOc1cc([C@@H](C)N(CCOCc2ccccc2)C(=O)N[C@]2(C(=O)O)C[C@@H](OCC)C2)c(C)c(OCC)c1C [Example 5-81] | 1.07 |
| CCOc1cc([C@@H](C)N(CCO[C@@H](C)c2ccccc2)C(=O)N[C@]2(C(=O)O)C[C@@H](OCC)C2)c(C)c(OCC)c1C [Example 5-82, trans-1-[([(1R)-1-(3,5-diethoxy-2,4-dimethylphenyl)ethyl]{2-[(1S)-1-phenylethoxy]ethyl}carbamoyl)amino]-3-ethoxycyclobutane-1-carboxylic acid] | 1.75 |
| CCOc1cc(C(C)N(CCCCc2ccccc2)C(=O)NC2(C(=O)O)CC(F)(F)C2)c(F)c(OCC)c1C (stereo not drawn) [Example 5-83] | 3.36 |
| CCOc1cc(C(C)N(CCCCc2ccccc2)C(=O)NC2(C(=O)O)CC(F)(F)C2)c(Cl)c(OCC)c1C (stereo not drawn) [Example 5-84] | 3.36 |
| CCOc1cc(OCC)nc(C(C)N(CCCCc2ccccc2)C(=O)NC2(C(=O)O)CC(F)(F)C2)c1 (stereo not drawn) [Example 5-85, 1-({[1-(4,6-Diethoxypyridin-2-Yl)Ethyl](4-Phenylbutyl) Carbamoyl}Amino)-3,3-Difluorocyclobutane-1-Carboxylic Acid] | 5.12 |
| CCOc1cc(C(C)N(CCCCc2ccccc2)C(=O)NC2(C(=O)O)CC(F)(F)C2)cc(OCC)n1 (stereo not drawn) [Example 5-86] | 11 |

| Structure (SMILES) | IC50 [nM] |
| --- | --- |
| COc1cc(OC)nc(C(C)N(CCCCc2ccccc2)C(=O)NC2(C(=O)O)CC(F)(F)C2)n1 (stereo not drawn) [Example 5-87] | 195 |
| COc1cc(C(C)N(CCCCc2ccccc2)C(=O)NC2(C(=O)O)CC(F)(F)C2)nc(OC)n1 (stereo not drawn) [Example 5-88] | 43.1 |
| CCOc1cncc(C(C)N(CCCCc2ccccc2)C(=O)NC2(C(=O)O)CC(F)(F)C2)c1 (stereo not drawn) [Example 5-89] | 55.3 |
| COc1cc(C(C)N(CCCCc2ccccc2)C(=O)NC2(C(=O)O)CC(F)(F)C2)cnc1C#N (stereo not drawn) [Example 5-90] | 143 |
| CC(c1ccc2c(c1)OCCO2)N(CCCCc1ccccc1)C(=O)NC1(C(=O)O)CC(F)(F)C1 (stereo not drawn) [Example 5-91] | 711 |
| CCOc1cc(C(C)N(CCCCc2ccccc2)C(=O)NC2(C(=O)O)CC(F)(F)C2)cc2c1CCO2 (stereo not drawn) [Example 5-92] | 23.1 |
| CCOc1cc(C(C)N(CCCCc2ccccc2)C(=O)NC2(C(=O)O)CC(F)(F)C2)c2ccn(CC)c2c1 (stereo not drawn) [Example 5-95] | 7.22 |
| CCOc1cc(C(C)N(CCCCc2ccccc2)C(=O)NC2(C(=O)O)CC(F)(F)C2)c2c(c1)N(CC)CC2 (stereo not drawn) [Example 5-97] | 10.1 |
| CCOc1cc(C(C)N(CCCCc2ccccc2)C(=O)NC2(C(=O)O)CC(F)(F)C2)cc2c1cnn2CC (stereo not drawn) [Example 5-99, 1-({[1-(4-Ethoxy-1-Ethyl-1H-Indazol-6-Yl)Ethyl](4-Phenylbutyl) Carbamoyl}Amino)-3,3-Difluorocyclobutane-1-Carboxylic Acid] | 5.6 |
| CCNc1cc(C(C)N(CCCCc2ccccc2)C(=O)NC2(C(=O)O)CC(F)(F)C2)cc(OCC)c1C(C)=O (stereo not drawn) [Example 5-102] | 7.35 |
| CCNc1cc(C(C)N(CCCCc2ccccc2)C(=O)NC2(C(=O)O)CCC2)cc(OCC)c1C(C)=O (stereo not drawn) [Example 5-103] | 1.71 |
| CCNc1cc(C(C)N(CCCCc2ccccc2)C(=O)NC2(C(=O)O)Cc3ccccc3C2)cc(OCC)c1C(C)=O (stereo not drawn) [Example 5-104] | 20.7 |
| CCNc1cc(C(C)N(CCCCc2ccccc2)C(=O)NC2(C(=O)O)CCS(=O)(=O)CC2)cc(OCC)c1C(C)=O (stereo not drawn) [Example 5-105] | 12.2 |
| CCNc1cc([C@@H](C)N(CCCCc2ccccc2)C(=O)NC2(C(=O)O)CC(F)(F)C2)cc(OCC)c1C(C)=O [Example 5-108] | 1.51 |
| CCNc1cc([C@H](C)N(CCCCc2ccccc2)C(=O)NC2(C(=O)O)CC(F)(F)C2)cc(OCC)c1C(C)=O [Example 5-109] | 191 |
| CCNc1cc([C@@H](C)N(CCCCc2ccccc2)C(=O)NC2(C(=O)O)CCC2)cc(OCC)c1C(C)=O [Example 5-110] | 1.78 |
| CCNc1cc([C@@H](C)N(CCCCc2ccccc2)C(=O)NC2(C(=O)O)CC(F)(F)C2)cc(O)c1C(C)=O [Example 5-112] | 15.1 |
| CCNc1cc(C(C)N(CCCCc2ccccc2)C(=O)NC2(C(=O)O)CCC2)cc(OCC)c1C#N (stereo not drawn) [Example 5-113] | 3.58 |
| CCNc1cc(C(C)N(CCCCc2ccccc2)C(=O)NC2(C(=O)O)CC(F)(F)C2)cc(OCC)c1C#N (stereo not drawn) [Example 5-114] | 4.19 |
| CCNc1cc([C@@H](C)N(CCCCc2ccccc2)C(=O)NC2(C(=O)O)CC(F)(F)C2)cc(OCC)c1C#N [Example 5-115] | 2.34 |
| O=C(NC1(C(=O)O)CC(F)(F)C1)N(CCCCc1ccccc1)C1CCc2c(Cl)cc(Cl)cc21 (stereo not drawn) [Example 5-116, 1-{[(4,6-Dichloro-2,3-Dihydro-1H-Inden-1-Yl) (4-Phenylbutyl) Carbamoyl]Amino}-3,3-Difluorocyclobutane-1-Carboxylic Acid] | 22.2 |
| O=C(NC1(C(=O)O)CC(F)(F)C1)N(CCCCc1ccccc1)C1COc2c(Cl)cc(Cl)cc21 (stereo not drawn) [Example 5-117] | 5.59 |
| CCOc1cc([C@@H](C)N(CCO[C@@H](C)c2ccccc2)C(=O)N[C@]2(C(=O)O)C[C@@H](OCC)C2)c(C)c(OCC)c1C(C)=O [Example 5-118, Trans-1-[([(1R)-1-(4-Acetyl-3,5-Diethoxy-2-Methylphenyl)Ethyl]{2-[(1S)-1-Phenylethoxy]Ethyl}Carbamoyl)Amino]-3-Ethoxycyclobutane-1-Carboxylic Acid] | 1.86 |
| CCOc1cc([C@@H](C)N(CCO[C@@H](C)c2ccccc2)C(=O)NC2(C(=O)O)CC(OCC)C2)c(C)c(OCC)c1C(C)=O (stereo partly drawn) [Example 5-119] | 2.91 |
| COc1cc([C@@H](C)N(CCOCc2ccccc2)C(=O)NC2(C(=O)O)CC(OC)C2)cc(OC)c1C(C)=O (stereo partly drawn) [Example 5-121] | 12.1 |
| COc1cc([C@@H](C)N(CCO[C@@H](C)c2ccccc2)C(=O)NC2(C(=O)O)CC(OC)C2)cc(OC)c1C(C)=O (stereo partly drawn) [Example 5-122] | 30.3 |
| COc1cc([C@@H](C)N(CCOCc2ccccc2)C(=O)NC2(C(=O)O)CC(OC)C2)c(Cl)c(OC)c1C(C)=O (stereo partly drawn) [Example 5-123] | 4.33 |
